According to patent US12458614B2, “Therapeutic agents for improved mobility and cognitive function and for treating neurodegenerative diseases and lysosomal storage disorders” (priority 2017, dated 2025):

What was measured:
Assay type in all cases: in vivo, human
[1] = system: person with balance disorder/senile gait disorder; assay: Case study Example 23
[2] = system: patient with GM1 Gangliosidosis; assay: Case study, GM1 Gangliosidosis; details: after one month, 1.5 g then 3 g per day
Source text: For example, to evaluate overall neurological status, mDRS, a four-domain scale (ambulation, manipulation, language and swallowing), may be applied. Cerebellar function may be evaluated using SARA, an eight-item clinical rating scale (gait, stance, sitting, speech, fine motor function and taxis; range 0-40, where 0 is the best neurological status and 40 the worst), and SCAFI, comprising the 8-m-Walking-Time (8MW; performed by having patients walking twice as quickly as possible from one line to another excluding turning), 9-Hole-Peg-Test (9HPT) and the number of “PATA” repetitions over 10 s. Subjective impairment and quality of life may be evaluated using the EQ-5D-5L questionnaire and VAS. To assess ocular motor function, 3-dimensional videooculography (EyeSeeCam) may be used to measure the peak velocity of saccades, gain of smooth pursuit, peak slow phase velocity of gaze-evoked nystagmus (gaze-holding function), peak slow phase velocity of optokinetic nystagmus, and gain of horizontal vestibulo-ocular reflex. To evaluate the cognitive state, WAIS-R or WISC-IV, and MoCA, assessing different cognitive domains, including attention and concentration, executive functions, memory, language, visuoconstructional skills, conceptual thinking, calculations, and orientation with a maximum of 30 points and a cut-off score of 26, may be used. […]

[3] = system: patients with multisystemic atrophy cerebellar type (MSA-C); assay: Case studies, multisystemic atrophy cerebellar type
NPC patients = assay: Clinical severity score (CSS) and annual severity increment score (ASIS) in ten NPC patients; details: 4.5 g/day
Source text: An NPC patient's severity may be quantified by assigning a clinical severity score (CSS), which assesses various parameters of the disease and gives each parameter a score out of 5 (higher score=greater severity). See Yanjanin et al., “Linear Clinical Progression, Independent of Age of Onset, in Niemann-Pick Disease, Type C,” Am J Med Genet Part B 153B:132-140. In an untreated patient, one can typically predict how the CSS will change over time in an individual, as disease progression appears to be linear. For example, if Patient A moves from a CSS of 8 to a CSS of 12 between month 0 and month 12, it can be predicted that by month 36, the patient will have a CSS of 20. The annual severity increment score (ASIS) quantities the annual rate of change in the CSS, calculated by dividing the CSS of a patient by the patient's age. […]
Ten NPC patients were administered acetyl-leucine at 4.5 g/day over long durations. A CSS was determined at baseline, and at various time points, for eye movement, ambulation, speech, swallow, fine motor skills, cognition, memory, and seizures. An overall CSS was calculated at baseline and at each such time point by adding the individual CSS values for each parameter (eye movement, ambulation, etc.).
The ASIS at baseline and each time point was calculated using each patient's CSS and age at the time of assessment. […]

[4] = system: person with gait problems and postural imbalance; assay: Case study Example 25, quantitative gait analysis
Procedure: The patient was then treated with Tanganil® (500 mg) in 3 separate doses throughout the day—1 g upon waking, 1 g prior to lunch and 1 g prior to the evening meal for one week, followed by 2 g upon waking, 1.5 g prior to lunch and 1.5 g prior to the evening meal.

Q: What does the source list for CC(=O)NC(CC(C)C)C(=O)O (racemic) [acetyl-DL-leucine]?
A: Frequency of falls ([1]; Day 14): significant reduction in the frequency of falls; Hypokinetic-rigid syndrome ([1]; Day 14): No change of hypokinetic-rigid syndrome; Dizziness symptoms ([1]; Day 14, 3 then 5 gram per day): improvement of dizziness symptoms; Dizziness after suspension ([1]; two days after suspension of treatment): increase of dizziness symptoms; Clinical re-examination [2]: stable general condition, increased gait (more fluent), and stable stance in natural position; Speech ([3]; MSA-C Patient 1, after one week, 5 g per day): significant improvement in speech; Dizziness ([3]; MSA-C Patient 2, after 3 weeks): substantially improved; Falls ([3]; MSA-C Patient 2, after 3 weeks): falls completely stopped; Gait ([3]; MSA-C Patient 2, after 3 weeks): significant improvement of gait; Symptoms after stopping medication ([3]; MSA-C Patient 2, one week after first stop): deterioration of gait and dizziness; Symptoms after stopping medication ([3]; MSA-C Patient 2, two days after second stop): progressive deterioration of gait and dizziness; Symptomatology after return to treatment ([3]; MSA-C Patient 3): symptomatology re-improved; Gait analysis (summary) ([3]; MSA-C Patient 3, after one month): improvement of gait speed, and reductions of track width and gait fluctuations; Symptoms after re-suspension ([3]; MSA-C Patient 3, three weeks after treatment was again suspended): deterioration of symptoms, especially dizziness; Symptoms after stopping medication ([3]; MSA-C Patient 3, two to three weeks after stopping): progressive deterioration of gait and dizziness; Change in ASIS during treatment relative to baseline (NPC patients): all ten patients showed a reduction in ASIS; Change in overall CSS over the course of the experiment (NPC patients): none of the ten patients showed an overall increase in CSS; Tolerability ([4]; 3 g/day one week then 5 g/day): very well tolerated; Gait and imbalance (patient and child report) ([4]; 3 weeks after beginning treatment): gait and imbalance was significantly improved; % of the time in the gait cycle in which both feet are in contact with the ground ([4]; after 3 weeks' treatment): 25.5%; Cadence ([4]; after 3 weeks' treatment): 100 steps/minute; Coefficient of variation (CV) of stride time ([4]; after 3 weeks' treatment): 1.8; Maximum walking speed ([4]; after 3 weeks' treatment): 157 cm/s; Natural walking speed ([4]; after 3 weeks' treatment): 96 cm/s; Spreading width ([4]; after 3 weeks' treatment): 8.1 cm; Step cycle length ([4]; after 3 weeks' treatment): 116 cm
